Patent publication US9907857B2, “Peptide having cell membrane penetrating activity” (EWHA UNIVERSITY-INDUSTRY COLLABORATION FOUNDATION, priority 2006, dated 2018)

How the values were obtained:
Type in all cases: cell-based
HeLa cells [1] = assay: Intracellular translocation of alanine substituents of TCTP(1-9), microplate fluorescence reader; settings: for decline in uptake, fluorescence intensity of TCTP (1-9) at 100 μM set to 100%: sensitivity 75 (FIG. 5); for penetrating activity of alanine substituents compared with WT TCTP(1-9): HeLa
Method: N-terminus of each peptide was labeled with fluorescence dye, rhodamine and C-terminus was protected. Peptide purity (>95%) was determined by HPLC. Synthesis of peptides of present invention was requested to PEPTRON, Inc.
HeLa cell line was propagated in DMEM supplemented with 10% FBS and 100 units/mL penicillin-streptomycin. Cells were grown in a 5% CO2 incubator at 37° C.
HeLa cells were cultured in 48-well plate until they were 70˜80% grown up before a day of the experiment. The cells were washed with DMEM of 37° C. twice, and TCTP-derived peptides synthesized in Example 4-1) were treated to the culture medium in a dose dependent manner (0, 1, 10, 100 μM), then the cells was incubated for 15 minutes or 2 hours in an CO2 incubator at 37° C.
After the incubation, the cells were washed in cool PBS three times and immediately measured by a microplate fluorescence reader at emission 530 nm and excitation 590 nm for a measurement of rhodamine of intracellular uptake marker. The sensitivity of reader was set at 100 as a basic, but was lowered to 75 if fluorescent signals were strong. All experiments were conducted in triplet repeats for reproducibility (FIG. 5 and FIG. 6).
Meanwhile, when the sensitivity of KC4 plate reader was set down to 75, we could not analyze the result of cell penetrating activity at relatively low concentration of 1 or 10 μM, so sensitivity of reader was fixed at 100 (FIG. 6). At this time, because fluorescence intensity at 100 μM was very strong, we could not express in a same graph.

HeLa cells [2] = assay: Cell penetrating efficiency of rhodamine-labelled TCTP-derived peptides, microplate fluorescence reader; settings: for intracellular translocation, dependence on concentration: 0-100 μM, 15 minutes or 2 hours; for efficiency versus control peptide TAT at low concentration: 1 μM and 10 μM; for cell penetrating activity / translocation efficiency in comparison with TAT (words): HeLa, rhodamine-labelled peptides, overall
Method: N-terminus of each peptides was labeled with fluorescence dye, rhodamine and C-terminus was protected. Peptide purity (>95%) was determined by HPLC. Synthesis of the peptides was requested to PEPTRON, Inc.
HeLa cell line (ATCC) was propagated in DMEM (GIBCO) supplemented with 10% FBS (GIBCO) and 100 units/mL penicillin-streptomycin. Cells were grown in a 5% CO2 incubator at 37° C.
HeLa cells were cultured in 48-well plate until they were 70˜80% grown up before a day of the experiment. The cells were washed with DMEM of 37° C. twice, and TCTP-derived peptides synthesized in Example 2-1) were treated to the culture medium in a dose dependent manner (0, 1, 5, 10, 50, 100 μM), then the cells was incubated for 15 minutes or 2 hours in an CO2 incubator at 37° C.
After the incubation, the cells were washed in cool PBS three times and immediately measured by a microplate fluorescence reader (BIO-TEK instruments, Inc., Vermont, USA) at emission 530 nm and excitation 590 nm for a measurement of rhodamine of intracellular uptake marker. The sensitivity of reader was set at 100 as a basic mode, but was lowered to 75 if the fluorescent signals were too strong. All experiments were conducted in triplet repeats for reproducibility (FIG. 2 and FIG. 3).

HeLa cells [3] = assay: Intracellular translocation of TCTP-derived peptide by fluorescence microscope; settings: 2 hours
Method: HeLa cells were treated with TCTP (1-9)(SEQ ID No.: 2) at a concentration of 10 μM and 100 μM by the same method of Example 2-2). […] After washing, cells on cover glass attached slide glass were observed (FIG. 4).

BEAS-2B cell = assay: Cellular uptake of deletion forms of TCTP, western blot of supernatant and lysate; settings: 15 ug/ml
Method: To overexpress each of those deletion forms of TCTP (FIGS. 1a and 1c), pRSET vector that is capable of tagging 6 histidine was employed. Subcloning with DNA sequences corresponding to each deletion forms of TCTP was performed in the multicloning site of the vector. Then, the recombinant expression vector was introduced into E. coli BL21(DE3)(Novagen) or BL21(DE3)pLysS (Novagen). The expression of the deletion forms of TCTP was induced by IPTG (isopropyl (-D-thiogalactoside) for 3 hours, then the protein was isolated and purified by using Ni column which binds to polyhistidine.
BEAS-2B cell was treated with the deletion form of TCTP at the concentration of 15 ug/ml with anti-TCTP antibodies (FIG. 1b).
In addition, it was examined whether TCTP proteins of the present invention could be transferred to cellular interior for a short time, 5 minutes or 30 minutes. The experiment was performed by same method as the above (FIG. 1d).

MIIYADLIS (mutant peptide based on human sequence; (1)..(9) TCTP(1-9)R5A) [SEQ ID No.: 12]
decline in uptake, fluorescence intensity of TCTP (1-9) at 100 μM set to 100% (HeLa cells [1]; 2 hours): about 50%
penetrating activity of alanine substituents compared with WT TCTP(1-9) (HeLa cells [1]): still maintained in translocation activity

MIIYRALIS (mutant peptide based on human sequence; (1)..(9) TCTP(1-9)D6A) [SEQ ID No.: 13]
penetrating activity, fluorescence intensity of TCTP (1-9) at 10 μM set to 1 (HeLa cells [1]; 10 μM, 2 hours, sensitivity 100 (FIG. 6)): 2.5 times
decline in uptake, fluorescence intensity of TCTP (1-9) at 100 μM set to 100% (HeLa cells [1]; 2 hours): about 50%
penetrating activity of alanine substituents compared with WT TCTP(1-9) (HeLa cells [1]): still maintained in translocation activity

MIIYRDLAS [SEQ ID No.: 14]
decline in uptake, fluorescence intensity of TCTP (1-9) at 100 μM set to 100% (HeLa cells [1]; 2 hours): about 50%

MIIYRDLAS [SEQ ID No.: 15] (mutant peptide based on human sequence; (1)..(9) TCTP(1-9)I8A)
decline in uptake, fluorescence intensity of TCTP (1-9) at 100 μM set to 100% (HeLa cells [1]; 2 hours): about 50%

MIIYRDLI ((1)..(8) 1-8 amino acid residue of TCTP; listed as Homo sapiens) [SEQ ID No.: 3, Residues of TCTP(1-8)]
intracellular translocation, dependence on concentration (HeLa cells [2]): translocated not in 1-10 μM but in 50-100 μM
efficiency versus control peptide TAT at low concentration (HeLa cells [2]): lower efficiency than control peptide, TAT
cell penetrating activity / translocation efficiency in comparison with TAT (words) (HeLa cells [2]): excellent cell penetrating activity in comparison with conventional TAT
cell penetrating activity / translocation efficiency in comparison with TAT (words) (HeLa cells [2]; listed as TCTP (1-8)): superior ability than well-known PTD, TAT in their translocation efficiency
cell penetrating activity / translocation efficiency in comparison with TAT (words) (HeLa cells [2]; listed as TCTP(1-8)): more excellent penetrating activity than well-known TAT(47-58) peptide

MIIYRDLIA (mutant peptide based on human sequence; (1)..(9) TCTP(1-9)S9A) [SEQ ID No.: 16]
decline in uptake, fluorescence intensity of TCTP (1-9) at 100 μM set to 100% (HeLa cells [1]; 2 hours): about 50%
penetrating activity of alanine substituents compared with WT TCTP(1-9) (HeLa cells [1]): still maintained in translocation activity

MIIYRDLIS ((1)..(9) 1-9 amino acid residue of TCTP; listed as Homo sapiens) [SEQ ID No.: 2, Residues of TCTP(1-9)]
intracellular translocation, dependence on concentration (HeLa cells [2]): translocated not in 1-10 μM but in 50-100 μM
efficiency versus control peptide TAT at low concentration (HeLa cells [2]): lower efficiency than control peptide, TAT
cell penetrating activity / translocation efficiency in comparison with TAT (words) (HeLa cells [2]): excellent cell penetrating activity in comparison with conventional TAT
cell penetrating activity / translocation efficiency in comparison with TAT (words) (HeLa cells [2]; listed as TCTP (1-9)): superior ability than well-known PTD, TAT in their translocation efficiency
cell penetrating activity / translocation efficiency in comparison with TAT (words) (HeLa cells [2]; listed as TCTP(1-9)): more excellent penetrating activity than well-known TAT(47-58) peptide
intracellular translocation (fluorescence microscope) (HeLa cells [3]; 10 μM): weakly translocated
intracellular translocation (fluorescence microscope) (HeLa cells [3]; 100 μM): strongly
intracellular distribution (fluorescence microscope) (HeLa cells [3]; HeLa): distributed widely in cytoplasm and nucleus of the cell

MIIYRDLISH ((1)..(10) 1-10 amino acid residue of TCTP; listed as Homo sapiens) [SEQ ID No.: 1, Residues of TCTP(1-10)]
intracellular translocation, dependence on concentration (HeLa cells [2]): translocated not in 1-10 μM but in 50-100 μM
efficiency versus control peptide TAT at low concentration (HeLa cells [2]): lower efficiency than control peptide, TAT
cell penetrating activity, SEQ ID No.: 1 versus SEQ ID No.: 2 (HeLa cells [2]; 50 μM (FIGS. 2 & 3)): more effective than SEQ ID No.: 2
concentration at which translocation was saturated (HeLa cells [2]; 2 hour treatment (FIG. 3)): 50 µM
cell penetrating activity / translocation efficiency in comparison with TAT (words) (HeLa cells [2]): excellent cell penetrating activity in comparison with conventional TAT
cell penetrating activity / translocation efficiency in comparison with TAT (words) (HeLa cells [2]; listed as TCTP (1-10)): superior ability than well-known PTD, TAT in their translocation efficiency
cell penetrating activity compared to that of TAT (HeLa cells [2]; treated for 15 minutes in 50 μM): over 3 times
cell penetrating activity compared to that of TAT (HeLa cells [2]; treated for 15 minutes in 100 μM): 6 times
cell penetrating activity compared to that of TAT (HeLa cells [2]; treatment for 2 hours, 50 μM): about 29 times
cell penetrating activity compared to that of TAT (HeLa cells [2]; treatment for 2 hours, 100 μM): ~30 times

B1: full length TCTP: translationally controlled tumor protein, 172 amino acids, expressed with 6 histidine tag in E. coli (protein, UniProt P13693 1-172, looked up)
chain: MIIYRDLISHDEMFSDIYKIREIADGLCLEVEGKMVSRTEGNIDDSLIGGNASAEGPEGEGTESTVITGVDIVMNHHLQETSFTKEAYKKYIKDYMKSIKGKLEEQRPERVKPFMTGAAEQIKHILANFKNYQFFIGENMNPDGMVALLDYREDGVTPYMIFFKDGLEMEKC
modifications: full-length
protein in cell supernatant (western blot, anti-TCTP antibodies) (BEAS-2B cell; 24 hours later): disappeared 24 hours later
protein in cell supernatant (western blot, anti-TCTP antibodies) (BEAS-2B cell; incubation for 1 hour): existed in cell supernatants
